Results: patent publication US9981942B2, “Piperidine derivatives having multimodal activity against pain” (LABORATORIOS DEL DR. ESTEVE S.A., priority 2013, dated 2018)

Test system: σ1 receptor and the μ-opiod receptor
Test: μ and σ1 dual binding: combined class from the Ki of both radioligand assays
Design: species or system human; key to μ and σ1 dual binding: +: Both Ki-μ and Ki-σ1>=500 nM; ++: One Ki<500 nM while the other Ki is >=500 nM; +++: Both Ki-μ and Ki-σ1<500 nM; ++++: Both Ki-μ and Ki-σ1<100 nM
Settings: transfected HEK-293 membranes (σ1), transfected CHO-K1 cell membranes (μ); for μ and σ1 dual binding: combined class for Ki-μ and Ki-σ1
Method in brief: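 Classes combine both Ki values, split at 500 nM and 100 nM. Human μ-opioid binding used 1 nM [3H]-DAMGO on CHO-K1 membranes (27 °C, 60 min, pH 7.4, naloxone 10 μM for NSB); human σ1 used 5 nM [3H](+)-pentazocine on HEK-293 membranes (37 °C, 120 min, pH 8, haloperidol 10 μM for NSB).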

Row | SMILES | μ and σ1 dual binding | Ki range for both μ and σ1 (dual-binding class)
1 | CS(=O)(=O)Nc1cccc(C2CCN(Cc3cn(Cc4ccccn4)nn3)CC2)c1 [Example 98, N-(3-(1-((1-(pyridin-2-ylmethyl)-1H-1,2,3-triazol-4-yl)methyl)piperidin-4-yl)phenyl)methanesulfonamide] | ++ | 
2 | CC(C)S(=O)(=O)Nc1cccc(C2CCN(Cc3cn(Cc4ncccc4Cl)nn3)CC2)n1 [Example 212, N-(6-(1-((1-((3-chloropyridin-2-yl)methyl)-1H-1,2,3-triazol-4-yl)methyl)piperidin-4-yl)pyridin-2-yl)propane-2-sulfonamide] | ++ | 
3 | Oc1cccc(C2CCN(Cc3cn([C@@H]4CCCC[C@H]4O)nn3)CC2)c1 [Example 66, 3-(1-((1-((1R,2R)-2-hydroxycyclohexyl)-1H-1,2,3-triazol-4-yl)methyl)piperidin-4-yl)phenol] |  | < 500 nM
4 | CC(C)S(=O)(=O)Nc1cccc(C2CCN(Cc3cn(-c4ccccc4)nn3)CC2)c1 [Example 1, N-(3-(1-((1-phenyl-1H-1,2,3-triazol-4-yl)methyl)piperidin-4-yl)phenyl)propane-2-sulfonamide] |  | < 100 nM
5 | Oc1cccc(C2CCN(Cc3cn(-c4ccccc4O)nn3)CC2)c1 [Example 58, 2-(4-((4-(3-hydroxyphenyl)piperidin-1-yl)methyl)-1H-1,2,3-triazol-1-yl)phenol] |  | < 500 nM
6 | Oc1cccc(C2CCN(Cc3cn([C@H]4CC[C@H](C(F)(F)F)CC4)nn3)CC2)c1 [Example 83, 3-(1-((1-((1r,4r)-4-(trifluoromethyl)cyclohexyl)-1H-1,2,3-triazol-4-yl)methyl)piperidin-4-yl)phenol] |  | < 100 nM
7 | CC(C)S(=O)(=O)Nc1cccc(C2CCN(Cc3cn(Cc4cc(N=[N+]=[N-])ccn4)nn3)CC2)c1 [Example 128] | ++ | 
8 | Oc1cccc(C2CCN(Cc3cn(Cc4ccncc4)nn3)CC2)c1 [Example 54, 3-(1-((1-(pyridin-4-ylmethyl)-1H-1,2,3-triazol-4-yl)methyl)piperidin-4-yl)phenol] |  | < 500 nM
9 | CCS(=O)(=O)Nc1cccc(C2CCN(Cc3cn(Cc4ccccn4)nn3)CC2)c1 [Example 112, N-(3-(1-((1-(pyridin-2-ylmethyl)-1H-1,2,3-triazol-4-yl)methyl)piperidin-4-yl)phenyl)ethanesulfonamide] | ++ | 
10 | CS(=O)(=O)Nc1cccc(C2CCN(Cc3cn(C(CO)c4ccccc4)nn3)CC2)c1 (centres unmarked) [Example 131, N-(3-(1-((1-(2-hydroxy-1-phenylethyl)-1H-1,2,3-triazol-4-yl)methyl)piperidin-4-yl)phenyl)methanesulfonamide] | ++ | 
11 | CS(=O)(=O)Nc1cccc(C2CCN(Cc3cnn([C@@H]4c5ccccc5C[C@H]4O)c3)CC2)c1 [Example 166, N-(3-(1-((1-((1R,2R)-2-hydroxy-2,3-dihydro-1H-inden-1-yl)-1H-pyrazol-4-yl)methyl)piperidin-4-yl)phenyl)methanesulfonamide] | ++ | 
12 | CCC(=O)Nc1ccnc(C2CCN(Cc3cn(-c4ccccc4)nn3)CC2)c1 [Example 192, N-(2-(1-((1-phenyl-1H-1,2,3-triazol-4-yl)methyl)piperidin-4-yl)pyridin-4-yl)propionamide] | ++ | 
13 | CS(=O)(=O)Nc1cccc([C@@H]2CCN(Cc3cnn(-c4ccccc4)c3)C[C@@H]2O)c1 [Example 165, N-(3-((3R,4S)-3-hydroxy-1-((1-phenyl-1H-pyrazol-4-yl)methyl)piperidin-4-yl)phenyl)methanesulfonamide] |  | < 500 nM
14 | Oc1cccc(C2CCN(Cc3cn(Cc4ccccc4)cn3)CC2)c1 [Example 184, 3-(1-((1-benzyl-1H-imidazol-4-yl)methyl)piperidin-4-yl)phenol] |  | < 100 nM
15 | CS(=O)(=O)Nc1cccc(C2CCN(Cc3cc(-c4ccccc4)no3)CC2)c1 [Example 174, N-(3-(1-((3-phenylisoxazol-5-yl)methyl)piperidin-4-yl)phenyl)methanesulfonamide] |  | < 100 nM
16 | OCC(c1ccccc1)n1cc(CN2CCC(c3cccc(O)c3)CC2)nn1 (centres unmarked) [Example 67, 3-(1-((1-(2-hydroxy-1-phenylethyl)-1H-1,2,3-triazol-4-yl)methyl)piperidin-4-yl)phenol] |  | < 500 nM
17 | CC(C)S(=O)(=O)Nc1cccc(C2CCN(Cc3cn(Cc4ccccn4)nn3)CC2)c1 [Example 81, N-(3-(1-((1-(pyridin-2-ylmethyl)-1H-1,2,3-triazol-4-yl)methyl)piperidin-4-yl)phenyl)propane-2-sulfonamide] | ++ | 
18 | Cc1cccc(Cn2cc(CN3CCC(c4cccc(NS(=O)(=O)C(C)C)c4)CC3)nn2)n1 [Example 118, N-(3-(1-((1-((6-methylpyridin-2-yl)methyl)-1H-1,2,3-triazol-4-yl)methyl)piperidin-4-yl)phenyl)propane-2-sulfonamide] | ++ | 

Row | SMILES | μ and σ1 dual binding | Ki range for both μ and σ1 (dual-binding class)
19 | Oc1cccc(C2CCN(Cc3cn(-c4c(F)cccc4F)nn3)CC2)c1 [Example 146, 3-(1-((1-(2,6-difluorophenyl)-1H-1,2,3-triazol-4-yl)methyl)piperidin-4-yl)phenol] |  | < 100 nM
20 | Oc1cccc(C2CCN(Cc3cn(Cc4ncccc4O)nn3)CC2)c1 [Example 156, 2-((4-((4-(3-hydroxyphenyl)piperidin-1-yl)methyl)-1H-1,2,3-triazol-1-yl)methyl)pyridin-3-ol] | ++ | 
21 | CS(=O)(=O)Nc1cccc(C2CCN(Cc3cnn(-c4ccccc4)c3)CC2)n1 [Example 203, N-(6-(1-((1-phenyl-1H-pyrazol-4-yl)methyl)piperidin-4-yl)pyridin-2-yl)methanesulfonamide] |  | < 500 nM
22 | Nc1nc2c(C3CCN(Cc4cn(-c5ccccc5)nn4)CC3)cccc2s1 [Example 50, 4-(1-((1-phenyl-1H-1,2,3-triazol-4-yl)methyl)piperidin-4-yl)benzo[d]thiazol-2-amine] |  | < 100 nM
23 | Oc1cccc(C2CCN(Cc3cn(-c4ccc(F)cc4F)nn3)CC2)c1 [Example 155, 3-(1-((1-(2,4-difluorophenyl)-1H-1,2,3-triazol-4-yl)methyl)piperidin-4-yl)phenol] |  | < 100 nM
24 | Oc1cccc(C2CCN(Cc3cn(-c4ccc(Cl)cc4Cl)nn3)CC2)c1 [Example 41, 3-(1-((1-(2,4-dichlorophenyl)-1H-1,2,3-triazol-4-yl)methyl)piperidin-4-yl)phenol] |  | < 100 nM
25 | CCC(=O)Nc1cccc(C2CCN(Cc3cnn(-c4ccccc4)c3)CC2)n1 [Example 202, N-(6-(1-((1-phenyl-1H-pyrazol-4-yl)methyl)piperidin-4-yl)pyridin-2-yl)propionamide] |  | < 100 nM
26 | OC[C@H](c1ccccc1)n1cc(CN2CCC(c3cccc(O)c3)CC2)nn1 (stereo in doubt) [Example 150, (S)-3-(1-((1-(2-hydroxy-1-phenylethyl)-1H-1,2,3-triazol-4-yl)methyl)piperidin-4-yl)phenol] |  | < 500 nM
27 | Oc1cccc(C2CCN(Cc3cn([C@@H]4c5ccccc5C[C@@H]4O)nn3)CC2)c1 [Example 88, (1R,2S)-1-(4-((4-(3-hydroxyphenyl)piperidin-1-yl)methyl)-1H-1,2,3-triazol-1-yl)-2,3-dihydro-1H-inden-2-ol] |  | < 500 nM
28 | COc1c(NS(C)(=O)=O)cccc1C1CCN(Cc2cn(Cc3ccccc3)nn2)CC1 [Example 102, N-(3-(1-((1-benzyl-1H-1,2,3-triazol-4-yl)methyl)piperidin-4-yl)-2-methoxyphenyl)methanesulfonamide] | ++ | 
29 | CS(=O)(=O)c1cccc(C2CCN(Cc3cn(-c4ccccc4)nn3)CC2)c1 [Example 47, 4-(3-(methylsulfonyl)phenyl)-1-((1-phenyl-1H-1,2,3-triazol-4-yl)methyl)piperidine] |  | < 500 nM
30 | CS(=O)(=O)Nc1cccc(C2CCN(Cc3nnc(-c4ccccc4)o3)CC2)c1 [Example 175, N-(3-(1-((5-phenyl-1,3,4-oxadiazol-2-yl)methyl)piperidin-4-yl)phenyl)methanesulfonamide] | ++ | 
31 | CN(c1cccc(C2CCN(Cc3cn(-c4ccccc4)nn3)CC2)c1)S(C)(=O)=O [Example 31, N-methyl-N-(3-(1-((1-phenyl-1H-1,2,3-triazol-4-yl)methyl)piperidin-4-yl)phenyl)methanesulfonamide] | ++ | 
32 | CC(C)S(=O)(=O)Nc1cccc([C@@H]2CCN(Cc3cn(Cc4ccccc4)nn3)C[C@@H]2O)c1 [Example 123, N-(3-((3R,4S)-1-((1-benzyl-1H-1,2,3-triazol-4-yl)methyl)-3-hydroxypiperidin-4-yl)phenyl)propane-2-sulfonamide] | ++ | 
33 | Oc1cccc(C2CCN(Cc3cn([C@@H]4CCC[C@H]4O)nn3)CC2)c1 (racemic) [Example 5, (±)-(trans)-3-(1-((1-(2-hydroxycyclopentyl)-1H-1,2,3-triazol-4-yl)methyl)piperidin-4-yl)phenol] | ++ | 
34 | Oc1cccc(C2CCN(Cc3cn([C@H]4CC[C@@H](C(F)(F)F)CC4)nn3)CC2)c1 [Example 82, 3-(1-((1-((1s,4s)-4-(trifluoromethyl)cyclohexyl)-1H-1,2,3-triazol-4-yl)methyl)piperidin-4-yl)phenol] |  | < 100 nM
35 | Oc1cccc(C2CCN(Cc3cn(-c4ccc(F)c(F)c4)nn3)CC2)c1 [Example 147, 3-(1-((1-(3,4-difluorophenyl)-1H-1,2,3-triazol-4-yl)methyl)piperidin-4-yl)phenol] |  | < 100 nM
